According to ChEMBL document CHEMBL3885861, “Open TG-GATES”:

Species: Rattus norvegicus
Assay: Open TG-GATES - Regimen: Single
Format: toxicity, organism-based, Sprague-Dawley
Parameters: regimen Single, gender Male, age 6 weeks
Conditions: in vivo, po, 100 mg/kg, route gavage, dose level Middle; for APTT / Bas / Eos / Fbg / Hb / Ht / Lym / MCH / MCHC / MCV / Mono / Neu / PT / Plat / RBC / Ret / WBC: tissue Blood; for KIDNEY_L / KIDNEY_R / KIDNEY_TOTAL: tissue Kidney; for LIVER: tissue Liver; for ALP / ALT / AST / BUN / CRE / Ca / Cl / DBIL / GLC / IP / K / LDH / Na / PL / RALB / TBIL / TC / TG / TP / gamma-GTP: tissue Plasma

COc1cc([C@@H]2c3cc4c(cc3[C@@H](O[C@@H]3O[C@@H]5CO[C@@H](C)O[C@H]5[C@H](O)[C@H]3O)[C@H]3COC(=O)[C@H]23)OCO4)cc(OC)c1O [ETOPOSIDE]
TERMINAL_BW (3 h): 196.5 g | APTT (3 h): 17 s | Bas (3 h): 0% | Eos (3 h): 1% | Fbg (3 h): 184.4 mg/dL | Hb (3 h): 13.6 g/dL | Ht (3 h): 40.5% | Lym (3 h): 78.6% | MCH (3 h): 21.7 pg | MCHC (3 h): 33.7% | MCV (3 h): 64.4 fL | Mono (3 h): 8.2% | Neu (3 h): 12.2% | PT (3 h): 12.3 s | Plat (3 h): 118 x10_4/uL | RBC (3 h): 628.4 x10_4/ul | Ret (3 h): 9.8% | WBC (3 h): 104.2 x10_2/uL | KIDNEY_L (3 h): 0.9 g | KIDNEY_R (3 h): 0.9 g | KIDNEY_TOTAL (3 h): 1.8 g | LIVER (3 h): 9.1 g | ALP (3 h): 1074.8 IU/L | ALT (3 h): 36 IU/L | AST (3 h): 69.4 IU/L | BUN (3 h): 13.8 mg/dL | CRE (3 h): 0.5 mg/dL | Ca (3 h): 10.6 mg/dL | Cl (3 h): 103.8 meq/L | DBIL (3 h): 0.026 mg/dL | GLC (3 h): 193 mg/dL | IP (3 h): 9.6 mg/dL | K (3 h): 4.3 meq/L | LDH (3 h): 111 IU/L | Na (3 h): 141.6 meq/L | PL (3 h): 137.2 mg/dL | RALB (3 h): 3.4 g/dL | TBIL (3 h): 0.3 mg/dL | TC (3 h): 78.6 mg/dL | TG (3 h): 45.4 mg/dL | TP (3 h): 5.2 g/dL | gamma-GTP (3 h): 1.4 IU/L | TERMINAL_BW (6 h): 198.5 g | APTT (6 h): 17.4 s | Bas (6 h): 0% | Eos (6 h): 1% | Fbg (6 h): 198 mg/dL | Hb (6 h): 13.6 g/dL | Ht (6 h): 40.5% | Lym (6 h): 76.6% | MCH (6 h): 21.9 pg | MCHC (6 h): 33.7% | MCV (6 h): 65.1 fL | Mono (6 h): 9.8% | Neu (6 h): 13% | PT (6 h): 11.9 s | Plat (6 h): 110.3 x10_4/uL | RBC (6 h): 622 x10_4/ul | Ret (6 h): 10% | WBC (6 h): 69.6 x10_2/uL | KIDNEY_L (6 h): 0.9 g | KIDNEY_R (6 h): 0.9 g | KIDNEY_TOTAL (6 h): 1.9 g | LIVER (6 h): 8.9 g | ALP (6 h): 933.8 IU/L | ALT (6 h): 29.4 IU/L | AST (6 h): 62.2 IU/L | BUN (6 h): 11.4 mg/dL | CRE (6 h): 0.6 mg/dL | Ca (6 h): 10.7 mg/dL | Cl (6 h): 105 meq/L | DBIL (6 h): 0.02 mg/dL | GLC (6 h): 196.2 mg/dL | IP (6 h): 10.5 mg/dL | K (6 h): 4.7 meq/L | LDH (6 h): 98.4 IU/L | Na (6 h): 141.6 meq/L | PL (6 h): 137.8 mg/dL | RALB (6 h): 3.3 g/dL | TBIL (6 h): 0.4 mg/dL | TC (6 h): 78 mg/dL | TG (6 h): 40.2 mg/dL | TP (6 h): 5.3 g/dL | gamma-GTP (6 h): 0.8 IU/L | TERMINAL_BW (9 h): 197 g | APTT (9 h): 16.9 s | Bas (9 h): 0% | Eos (9 h): 1% | Fbg (9 h): 206.8 mg/dL | Hb (9 h): 13 g/dL | Ht (9 h): 38.8% | Lym (9 h): 77.8% | MCH (9 h): 21.5 pg | MCHC (9 h): 33.5% | MCV (9 h): 64.3 fL | Mono (9 h): 6.8% | Neu (9 h): 14.6% | PT (9 h): 11.2 s | Plat (9 h): 109 x10_4/uL | RBC (9 h): 604.2 x10_4/ul | Ret (9 h): 8.2% | WBC (9 h): 72.5 x10_2/uL | KIDNEY_L (9 h): 0.9 g | KIDNEY_R (9 h): 1 g | KIDNEY_TOTAL (9 h): 1.9 g | LIVER (9 h): 8.5 g | ALP (9 h): 842.6 IU/L | ALT (9 h): 33.4 IU/L | AST (9 h): 63.6 IU/L | BUN (9 h): 12.8 mg/dL | CRE (9 h): 0.5 mg/dL | Ca (9 h): 10.4 mg/dL | Cl (9 h): 105.8 meq/L | DBIL (9 h): 0.048 mg/dL | GLC (9 h): 199 mg/dL | IP (9 h): 10.6 mg/dL | K (9 h): 4.6 meq/L | LDH (9 h): 78.4 IU/L | Na (9 h): 143.2 meq/L | PL (9 h): 114 mg/dL | RALB (9 h): 3.5 g/dL | TBIL (9 h): 0.4 mg/dL | TC (9 h): 67.6 mg/dL | TG (9 h): 27.6 mg/dL | TP (9 h): 5.4 g/dL | gamma-GTP (9 h): 1.6 IU/L | TERMINAL_BW (24 h): 207.9 g | APTT (24 h): 16 s | Bas (24 h): 0% | Eos (24 h): 1% | Fbg (24 h): 206 mg/dL | Hb (24 h): 13.4 g/dL | Ht (24 h): 39.8% | Lym (24 h): 86.4% | MCH (24 h): 21.4 pg | MCHC (24 h): 33.7% | MCV (24 h): 63.4 fL | Mono (24 h): 4.8% | Neu (24 h): 8% | PT (24 h): 11.7 s | Plat (24 h): 113.3 x10_4/uL | RBC (24 h): 628.4 x10_4/ul | Ret (24 h): 7.4% | WBC (24 h): 74.6 x10_2/uL | KIDNEY_L (24 h): 1 g | KIDNEY_R (24 h): 1 g | KIDNEY_TOTAL (24 h): 2 g | LIVER (24 h): 9.3 g | ALP (24 h): 999.2 IU/L | ALT (24 h): 30.4 IU/L | AST (24 h): 64.8 IU/L | CRE (24 h): 0.5 mg/dL | Ca (24 h): 10.9 mg/dL | Cl (24 h): 104.8 meq/L | DBIL (24 h): 0.028 mg/dL | GLC (24 h): 192.4 mg/dL | IP (24 h): 9.1 mg/dL | K (24 h): 5 meq/L | LDH (24 h): 94.6 IU/L | Na (24 h): 140.6 meq/L | PL (24 h): 134.4 mg/dL | RALB (24 h): 3.6 g/dL | TBIL (24 h): 0.3 mg/dL | TC (24 h): 78.2 mg/dL | TG (24 h): 60 mg/dL | TP (24 h): 5.5 g/dL | gamma-GTP (24 h): 1.2 IU/L
